Measurements taken from US20020137774A1, “Carboxyaryl substituted diphenyl ureas as raf kinase inhibitors” (BAYER CORPORATION, priority 1999, published 2002).

For COC(=O)c1ccc(Oc2ccc(NC(=O)Nc3ccc(Cl)c(C(F)(F)F)c3)cc2)cn1 [Entry 55, N-(4-chloro-3-(trifluoromethyl)phenyl)-N′-(4-(2-(methoxycarbonyl)-5-pyridyloxy)phenyl) urea], which melting point is on record?
Its melting point is 228 to 230 °C.
